{"source": "patent US11932850B2", "about": "“Cancer chemoprevention with STAT3 blockers” (Jill M. Siegfried, LLC, priority 2018, dated 2024)", "key": {"H1975 cells": {"system": "H1975 cells", "experiment": "MTS cell viability assay, H1975", "assay_type": "cell-based, human", "settings": "for IC50: MTS 72 hours", "procedure": "NSCLC cell lines (201T and H1975) were transfected with CS3D or CS3M (cyclic STAT3 mutant decoy) at concentrations ranging from 0 nM to 600 nM. Using MTS assays, cell viabilities were assessed 72 hours later. Three independent experiments were performed, using 24-well plates and 4 wells/concentration.\nTo determine the concentration of CS3D required to inhibit cell viability, increasing concentrations of CS3D was transfected, and after 72 hours, MTS assays were used to assess cell viability. Data were normalized to cells treated with lipofectamine alone.\nFluorescently-labeled CS3M and CS3D (with iFluor) were also produced using enzymatic ligation as described above and used to assess uptake efficiency. Transfections of the cyclic oligonucleotides were performed using Lipofectamine 2000 (Life Technologies) in opti-MEM media (Life Technologies) as follows: Cells were plated at […] confluency, and exposed to transfection media containing the respective circularized oligonucleotides for 24 hours at 37° C. Post-transfection, cell recovery was initiated in media containing 10% heat-inactivated fetal bovine serum.\nDose-response experiments assessing the relative number of metabolically active viable cells were performed by transfecting cells with increasing concentrations of CS3D or CS3M, followed by performance of MTS assays. After 72 hours, 5 mg/ml of MTS reagent was added in the plates and incubated 37° C. for 20 minutes. The plates were then read at 490 nm in a Synergy microplate reader (BioTek, Winooski, Vermont) using Gen5 2.05 software. Data obtained following treatment with C3SD or CS3M were normalized to treatment with lipofectamine alone. […] To assess induction of apoptosis in response to CS3D, H1975 and 201T cells were transfected with 100 nM of CS3M or CS3D. After twenty four hours of transfection, cells were resuspended in annexin V-binding buffer, incubated with 5 μL of propidium iodide (BD Biosciences) and subjected to flow cytometric analysis, using a BD FACS Canto II Flow Cytometer."}, "[1]": {"system": "NSCLC cells (H1975 and 201T)", "experiment": "Annexin V/propidium iodide apoptosis by flow cytometry", "assay_type": "cell-based, human", "procedure": "Statistical significance was determined as *P<0.05, n=3.\nDose-response experiments assessing the relative number of metabolically active viable cells were performed by transfecting cells with increasing concentrations of CS3D or CS3M, followed by performance of MTS assays. After 72 hours, 5 mg/ml of MTS reagent was added in the plates and incubated 37° C. for 20 minutes. The plates were then read at 490 nm in a Synergy microplate reader (BioTek, Winooski, Vermont) using Gen5 2.05 software. Data obtained following treatment with C3SD or CS3M were normalized to treatment with lipofectamine alone. […] After twenty four hours of transfection, cells were resuspended in annexin V-binding buffer, incubated with 5 μL of propidium iodide (BD Biosciences) and subjected to flow cytometric analysis, using a BD FACS Canto II Flow Cytometer."}, "[2]": {"system": "c-Myc in H1975-derived tumors", "experiment": "c-Myc expression in H1975 xenograft tumors (Western blot)", "assay_type": "in vivo, nude mice", "procedure": "FIGS. 7C and 7D show c-Myc is suppressed after CS3D treatment in vivo. At the end of the treatments, tumors were harvested, whole cell lysates were prepared and RNA extracted for target gene analysis by Western blotting and RT-qPCR GAPDH protein was used as internal loading control for immunoblotting. CS3D treated tumors (C4, C5, and C6) from separate animals show a decrease in c-Myc expression level relative to the CS3M-treated group (C1, C2, and C3) in 201T. […] Data are shown as mean+/−SEM.\nTo determine how CS3D blocks NSCLC growth, Western blot, qRT-PCR, and immunohistochemical analysis were performed to determine expression of c-Myc in residual tumors. These analyses identified a substantial downregulation of c-Myc protein (FIGS. 7C and 7D) and mRNA levels (FIG. 7E) in individual CS3D-treated tumors relative to CS3M-treated tumors in both 201T and H1975 xenografts. Some variability in protein levels among individual xenografts was observed (FIGS. 7C and 7D); the densitometry units for c-Myc protein after normalizing for GAPDH levels ranged from 0.11-0.16 units for CS3D-treated xenografts and 0.25-0.46 units for CS3M-treated tumors in H1975. Similarly, in 201T-derived tumors these measurements ranged from 0.015 to 0.51 units for CS3D and 0.28 to 0.97 units for CS3M. Even with this variability, the effect across the groups in both cell lines was significant (P<0.05 for H1975 and P<0.042 for 201T xenografts), with a mean decrease of 65% and 70%, respectively."}, "[3]": {"system": "cleaved caspase-3 in H1975 xenografts", "experiment": "IHC of cleaved caspase-3 in H1975 xenografts at end of treatment", "assay_type": "in vivo, nude mice", "settings": "after last day of treatment (day 14)", "excerpt": "For mRNA levels in tumor lysates, CS3D produced a 60-70% reduction of c-Myc gene expression relative to GAPDH compared to CS3M (FIG. 7E). […] Some cleaved caspase 3 staining was localized in nuclei, where caspase-3 is known to be active. Some caspase 3 staining was also evident in fibroblasts.\nImmunohistochemical analysis: Tumors were excised for immunohistochemical (IHC) staining; 5-μm (micron) sections were cut from formalin-fixed paraffin-embedded tissue blocks, deparaffinized and rehydrated using successive washes of xylene followed by ethanol. Antigen retrieval was performed in a microwave oven (for 20 minutes) in an unmasking solution containing sodium citrate buffer followed by peroxidase blocking in 3% hydrogen peroxide. The sections were incubated in ABC blocking buffer (Vector laboratories Inc, Burlingame, California) for 1 hour at room temperature. Sections were then stained with H&E (hematoxylin and eosin) or subjected to sequential incubations with different primary antibodies and peroxidase-conjugated goat anti-rabbit secondary antibodies. […] Staining was graded as low (<30% positive cells per field, scored as 1), moderate (30-60% positive cells per field, scored as 2) or high (>60% positive cells per field, scored as 3)."}, "[4]": {"experiment": "Toxicology studies in mice", "assay_type": "in vivo", "settings": "repeated doses up to 100 mg/kg", "excerpt": "The novel mechanism of action combined with the stability of the circularized STAT3 decoy and its low toxicity are favorable features for clinical application. In all experiments with the STAT3 decoy, activity is compared to a mutant version with a T-A base pair replacing a G-C base pair at position 9, differing by the two nucleotides in the base pair."}, "[5]": {"system": "K-RAS G12D mutation in tumors", "settings": "tumors 20 weeks post treatment, P>0.1"}}, "note": "Entries after “also recorded” stand apart in the source; their conditions may differ. Read-outs that look alike come from different tables or passages of the source.", "data": [{"substance": "CS3D (DNA GATTTACGGGAAATGCSCATTTCCC; cyclic decoy with two hexaethylene glycol linkers, further chemistry not given here)", "values": [{"measurement": "inhibition in proliferation", "setting": "H1975 cells; 0.3 μM transfection, H1975, relative to CS3M", "value": 50, "unit": "%"}, {"measurement": "IC50", "setting": "H1975 cells; H1975 (mutant EGFR), read-out: IC50", "value": "~300", "unit": "nM"}, {"measurement": "IC50", "setting": "H1975 cells; H1975, EGFR mutant (L858R/T790M), KRAS WT, read-out: CS3D IC50", "value": 300, "unit": "nM"}, {"measurement": "increase in number of cells undergoing apoptosis", "setting": "[1]; 100 nM, 24 h, compared to CS3M", "value": 2, "unit": "fold"}, {"measurement": "increase in the percent of apoptotic cells", "setting": "[1]; 201T and H1975, relative to CS3M", "value": 2, "unit": "fold"}, {"measurement": "increase in number of apoptotic cells", "setting": "[1]; one transfection, all 4 cell lines", "value": 2, "unit": "fold"}, {"measurement": "c-Myc protein densitometry normalized for GAPDH", "setting": "[2]; H1975 xenograft tumors, range among individual tumors", "value": "0.11-0.16 units"}, {"measurement": "mean decrease of c-Myc protein", "setting": "[2]; H1975 xenografts, CS3D vs CS3M", "value": 65, "unit": "%"}, {"measurement": "fields scoring high level of cleaved caspase-3", "setting": "[3]", "value": 83, "unit": "%"}, {"measurement": "toxicology: body weight, organ histology, clinical chemistry", "setting": "[4]", "value": "no significant effects on body weight, organ histology, or clinical chemistry; also recorded: no appreciable changes in blood chemistry, weight or organ structure"}, {"measurement": "proportion of tumors positive for K-RAS mutation, CS3D vs CS3M", "setting": "[5]", "value": "no significant difference"}]}]}
